In patent US20230225984A1, “MONO- AND BIS-NITROSYLATED ALKYL POLYOLS FOR THERAPEUTIC USE” (priority 2020, published 2023):

Experiment: Stability of non-aqueous mixtures of 1-(nitrosooxy)-propan-2-ol and 2-(nitrosooxy)-propan-1-ol in 1,2-propanediol, GC analysis
Format: physicochemical
Protocol: Three different concentrations of 1-(nitrosooxy)-propan-2-ol and 2-(nitrosooxy)-propan-1-ol in 1,2-propanediol were prepared and stored in both a refrigerator (5° C.) and freezer (−20° C.). Aliquots of each solution were taken periodically and analysed by GC to determine the concentration of 1-(nitrosooxy)-propan-2-ol and 2-(nitrosooxy)-propan-1-ol.
The results of the GC analysis are shown in the table below (column: Rxi-5Sil MS, 20 m×0.18 mm, […]; carrier: He; Inlet: 250° C., split ratio 100:1; constant flow: 1.0 mL/min; oven temperature profile: 40° C. (3 min), 10° C./min, 80° C. (0 min), 30° C./min, 250° C. (3 min); FID: 300° C., H2 flow 30 mL/min, air flow 400 mL/min, make-up flow (N2) 25 mL/min; internal standard: 1,1,1,3,5,5,5-heptamethyl trisiloxane): […]

[1] = Freezer (−20° C.), 10 days, Low conc. sample in 1,2-propanediol
[2] = Freezer (−20° C.), 10 days, Medium conc. sample in 1,2-propanediol
[3] = Freezer (−20° C.), 14 days, High conc. sample in 1,2-propanediol
[4] = Freezer (−20° C.), 27 days, Low conc. sample in 1,2-propanediol
[5] = Freezer (−20° C.), 27 days, Medium conc. sample in 1,2-propanediol
[6] = Freezer (−20° C.), 28 days, High conc. sample in 1,2-propanediol
[7] = Freezer (−20° C.), 56 days, High conc. sample in 1,2-propanediol
[8] = Freezer (−20° C.), 64 days, Low conc. sample in 1,2-propanediol
[9] = Freezer (−20° C.), 64 days, Medium conc. sample in 1,2-propanediol
[10] = Freezer (−20° C.), 84 days, High conc. sample in 1,2-propanediol
[11] = Freezer (−20° C.), 84 days, Low conc. sample in 1,2-propanediol
[12] = Freezer (−20° C.), 84 days, Medium conc. sample in 1,2-propanediol
[13] = Freezer (−20° C.), Start, High conc. sample in 1,2-propanediol
[14] = Freezer (−20° C.), Start, Low conc. sample in 1,2-propanediol
[15] = Freezer (−20° C.), Start, Medium conc. sample in 1,2-propanediol
[16] = Refrigerator (5° C.), 10 days, Low conc. sample in 1,2-propanediol
[17] = Refrigerator (5° C.), 10 days, Medium conc. sample in 1,2-propanediol
[18] = Refrigerator (5° C.), 14 days, High conc. sample in 1,2-propanediol
[19] = Refrigerator (5° C.), 27 days, Low conc. sample in 1,2-propanediol
[20] = Refrigerator (5° C.), 27 days, Medium conc. sample in 1,2-propanediol
[21] = Refrigerator (5° C.), 28 days, High conc. sample in 1,2-propanediol
[22] = Refrigerator (5° C.), 56 days, High conc. sample in 1,2-propanediol
[23] = Refrigerator (5° C.), 64 days, Low conc. sample in 1,2-propanediol
[24] = Refrigerator (5° C.), 64 days, Medium conc. sample in 1,2-propanediol
[25] = Refrigerator (5° C.), 84 days, High conc. sample in 1,2-propanediol
[26] = Refrigerator (5° C.), 84 days, Low conc. sample in 1,2-propanediol
[27] = Refrigerator (5° C.), 84 days, Medium conc. sample in 1,2-propanediol
[28] = Refrigerator (5° C.), Start, High conc. sample in 1,2-propanediol
[29] = Refrigerator (5° C.), Start, Low conc. sample in 1,2-propanediol
[30] = Refrigerator (5° C.), Start, Medium conc. sample in 1,2-propanediol

Row | Compound | Concentration (% w/w) [1] [% w/w] | Concentration (% w/w) [2] [% w/w] | Concentration (% w/w) [3] [% w/w] | Concentration (% w/w) [4] [% w/w] | Concentration (% w/w) [5] [% w/w] | Concentration (% w/w) [6] [% w/w] | Concentration (% w/w) [7] [% w/w] | Concentration (% w/w) [8] [% w/w] | Concentration (% w/w) [9] [% w/w] | Concentration (% w/w) [10] [% w/w] | Concentration (% w/w) [11] [% w/w] | Concentration (% w/w) [12] [% w/w] | Concentration (% w/w) [13] [% w/w] | Concentration (% w/w) [14] [% w/w] | Concentration (% w/w) [15] [% w/w] | Concentration (% w/w) [16] [% w/w] | Concentration (% w/w) [17] [% w/w] | Concentration (% w/w) [18] [% w/w] | Concentration (% w/w) [19] [% w/w] | Concentration (% w/w) [20] [% w/w] | also measured
1 | CC(O)CON=O (stereo not drawn) [1-Nitrite, 1-(nitrosooxy)-propan-2-ol] | 0.08 | 0.81 | 3.76 | 0.07 | 0.74 | 3.72 | 3.55 | 0.07 | 0.74 | 3.50 | 0.08 | 0.78 | 3.75 | 0.08 | 0.81 | 0.08 | 0.86 | 3.72 | 0.09 | 0.81 | Concentration (% w/w) [21]: 3.67 % w/w; Concentration (% w/w) [22]: 3.47 % w/w; Concentration (% w/w) [23]: 0.07 % w/w; Concentration (% w/w) [24]: 0.73 % w/w; Concentration (% w/w) [25]: 3.33 % w/w; Concentration (% w/w) [26]: 0.07 % w/w; Concentration (% w/w) [27]: 0.77 % w/w; Concentration (% w/w) [28]: 3.75 % w/w; Concentration (% w/w) [29]: 0.08 % w/w; Concentration (% w/w) [30]: 0.81 % w/w
2 | CC(CO)ON=O (stereo not drawn) [2-Nitrite, 2-(nitrosooxy)-propan-1-ol] | 0.06 | 0.63 | 2.89 | 0.06 | 0.57 | 2.93 | 2.74 | 0.06 | 0.58 | 2.71 | 0.06 | 0.62 | 2.94 | 0.06 | 0.61 | 0.06 | 0.67 | 2.91 | 0.07 | 0.63 | Concentration (% w/w) [21]: 2.90 % w/w; Concentration (% w/w) [22]: 2.69 % w/w; Concentration (% w/w) [23]: 0.06 % w/w; Concentration (% w/w) [24]: 0.57 % w/w; Concentration (% w/w) [25]: 2.59 % w/w; Concentration (% w/w) [26]: 0.06 % w/w; Concentration (% w/w) [27]: 0.60 % w/w; Concentration (% w/w) [28]: 2.94 % w/w; Concentration (% w/w) [29]: 0.06 % w/w; Concentration (% w/w) [30]: 0.61 % w/w
